Measurements as given in US20240197891A1, “PHARMACEUTICAL COMPOSITIONS COMPRISING POH DERIVATIVES” (UNIVERSITY OF SOUTHERN CALIFORNIA, priority 2021, published 2024).

Tested on: cyclobutane pyrimidine dimers (CPD) and pyrimidine (6-4) pyrimidone photoproducts (6-4PP)
Experiment: DNA damage (6-4PP and CPD) in UV exposed mouse skin
Type: in vivo
Conditions: skin DNA following UV exposure
Text: FIGS. 26A and 26B show the DNA damage that occurs following UV exposure with and without POH-LA conjugate treatment. Upon euthanasia of animals, skin tissues were collected from the back of the animals, fixed in formalin, and processed for analysis. Absorption of ultraviolet (UV) light produces two predominant types of DNA damage, cyclobutane pyrimidine dimers (CPD) and pyrimidine (6-4) pyrimidone photoproducts (6-4PP). UV DNA Damage standards for comparison to UV exposed mouse skin extracted DNA were used. Both the standard and sample DNA are first heat denatured before they are adsorbed onto a 96-well DNA high-binding plate. The 6-4PP (FIG. 26A) and CPDs (FIG. 26B) present in the sample or standard are probed with an anti6-4PP or CPD antibody, followed by an HRP conjugated secondary antibody. The 6-4PP or CPD content in an unknown sample is determined by comparing with a standard curve that is prepared from predetermined CPD-DNA standards 1,000-1.56 ng/ml). […] The skin has important barrier, sensory, and immune functions, contributing to the health and integrity of the organism. […]
FIGS. 26A and 26B show the DNA damage that occurs following UV exposure with and without POH-LA conjugate treatment. […] The 6-4PP or CPD content in an unknown sample is determined by comparing with a standard curve that is prepared from predetermined CPD-DNA standards 1,000-1.56 ng/ml).

With `C=C(C)[C@@H]1CC=C(COC(=O)CCCCCCC/C=C\C/C=C\CCCCC)CC1` [POH-LA conjugate, Octadeca-9,12-dienoic acid 4-isopropenyl-cyclohex-1-enylmethyl ester] the “DNA damage (6-4PP and CPD content)” value was “less DNA damage”.
